Source: US9072756B2, “Methods and compositions for increasing the efficacy of an agent that directly or indirectly affects a muscarinic receptor through administration of a pyrophosphate analog” (HealthPartners Research Foundation, priority 2000, dated 2015)
Where two headings read alike, the source gives them in different places.

Assays:
[1] = biological target: muscarinic acetylcholine receptor (mAChR); assay: Protection of mAChR from inactivation by the endogenous LMW inhibitor, [3H]QNB (antagonist) binding; design: species or system human; conditions: for EC50: read-out: concentration that provides 50% protection of the mAChR; for protection of the mAChR from inactivation by the LMW inhibitor (in words): FIGS. 4-7, 15, 17, 19
[2] = biological target: muscarinic acetylcholine receptor (mAChR); conditions: read-out: concentration that provides 50% protection of the mAChR from damage by PbCl2, 3H-QNB binding, FIG. 20
[3] = biological target: muscarinic acetylcholine receptor (mAChR); assay: Protection of mAChR from inactivation by heme and peroxide, [3H]QNB (antagonist) binding; design: species or system human; conditions: 3H-QNB binding, FIG. 16
[4] = LMW inhibitor, 3H-QNB binding, FIGS. 11, 13, 14

Compound | EC50 [1, 4] [µM] | protection of the mAChR from inactivation by the LMW inhibitor (in words) ([1]; LMW inhibitor, 3H-QNB binding) | other results
O=c1c(O)c(-c2ccc(O)c(O)c2)oc2cc(O)cc(O)c12 [quercetin] | 0.24 | – | –
O=P(O)(O)OP(=O)(O)O [pyrophosphate] | – | – | EC50 ([1]; inactivation by LMW inhibitor or heme and peroxide, loss of antagonist (3H-QNB) and agonist (3H-Oxotremorine M) binding, FIGS. 1-3, not specified further): ~1 µM; EC50 [2]: ~57 µM
C=CC1=C(C)/C(=C/C2=NC(=C\c3[nH]c(/C=C4\NC(=O)C(C)=C4C=C)c(C)c3CCC(=O)O)/C(CCC(=O)O)=C2C)NC1=O [biliverdin] | 3 | – | –
O=c1c(O)c(-c2cc(O)c(O)c(O)c2)oc2cc(O)cc(O)c12 [myricetin] | 0.4 | – | –
catalase | – | protected the mAChR from inactivation | amount that provided 50% protection from inactivation by heme and peroxide [3]: 0.34 units/mL
O=P(O)(O)OP(=O)(O)OP(=O)(O)O [tripolyphosphate] | – | protect the mAChR from inactivation | –
Nc1ncnc2c1ncn2[C@@H]1O[C@H](COP(=O)(O)OP(=O)(O)NP(=O)(O)O)[C@@H](O)[C@H]1O [adenylylimidodiphosphate] | – | protect the mAChR from inactivation | –
CC(C)c1cc2c(c(O)c1O)[C@@]13CCCC(C)(C)[C@@H]1C[C@@H]2OC3=O [carnosol] | – | – | protection of the mAChR from inactivation ([1]; at 1 μM, LMW inhibitor, 3H-QNB binding, FIG. 12): 100%
